Measurements as given in PMC5955437, “Antifungal activity of osthol in vitro and enhancement in vivo through Eudragit S100 nanocarriers” (Virulence, 2017).
Read-outs that look alike come from different tables or passages of the source.

Tests used:
[1] = system: C. albicans 103; assay: Survival of immunosuppressed mice systemically infected with C. albicans; assay type: in vivo, Candida albicans; settings: immunosuppressed ICR mice, 1 × 10^6 CFU i.v.; oral FLC 0.5 mg/kg/day, Ost 150 mg/kg/day, 4 d treatment
Method: Sixty female ICR mice (weighing 20–25 g) were prepared in the antifungal study in vivo. We followed the methods of Junius M et al. and Kenneth et al. with a few modifications.[45,46] Briefly, acute infections in immunosuppressed mice, resulting from a 80 mg/kg/day intravenous dose of cyclophosphamide 3 d before infection, then injected with 1 × 10^6 CFU C. albicans in 0.2 ml of saline intravenously. This inoculum was uniformly lethal for placebo-treated animals within a week. After inoculation, the mice were randomly separated into 6 groups (10 animals per group), including saline control group and medication administration groups (FLC, Ost-S100-NP, Ost-suspensions, Ost-suspensions plus FLC, and Ost-S100-NP plus FLC). The dosages of FLC and Ost are 0.5 mg/kg/day and 150 mg/kg/day by oral administration. Therapy was begun 2 hours post infection and last for 4 d. The survival time was calculated from the day 0 since inoculation to the day of death. Survival data were presented as Kaplan-Merier plots and analyzed with a Log-rank Test (SPSS 18; SPSS, Chicago, Illinois). A value of P < 0.05 was considered to be significant.

[2] = system: clinical isolates of C. albicans resistant to FLC; assay: Checkerboard microdilution assay (CLSI M27-A2), FLC-resistant clinical isolates; assay type: cell-based, Candida albicans; settings: for MIC80: Candida albicans, read-out: MIC80 alone; for MIC80 / MIC80 alone: 24 h, 35 °C; for antifungal activity when tested alone: FLC-resistant isolates, drug alone; for MIC80 in combination: FLC combined with Ost
Method: (§1) Eleven clinical isolates of FLC-resistant C. albicans were used in this study, and C. albicans ATCC 90028 was used as a quality control. Drugs prepared in dimethyl sulfoxide (DMSO) included osthol (Shanghai Jianglai Biotechnology Co. Ltd, China) and fluconazole (Pfizer-Roerig Pharmaceuticals, New York, NY).
(§2) Assays were performed on all 11 isolates according to methods of the CLSI (formerly NCCLS) (M27-A2). The concentration of fungus suspension in RPMI 1640 medium was 10^3 CFU/ml, and the final concentration ranged from 0.125 to 64 μg/ml for FLC and 1 to 32 μg/ml for OST. Plates were incubated at 35 °C for 24 h. Optical density was measured at 630 nm and background optical densities were subtracted from each well. MIC80 were defined as the minimum inhibition concentration of the drugs that inhibited growth by 80% when compared with drug-free wells. The fractional inhibitory concentration index (FICI) were defined as the sum of the MIC80 of each drug when used in combination divided by the MIC80 of the drug used alone. Synergism and antagonism were defined by FICIs of≤ 0.5 and >4, respectively. An FICI result of > 0.5 but ≤ 4 was considered indifferent.[43]

[3] = system: C. albicans 103; assay: Agar disk diffusion test; assay type: cell-based, Candida albicans; settings: for anti-fungal activity, disk on plain agar: Ost alone
Method: C. albicans 103 (FLC-resistant isolate with a MIC80 of 64 μg/ml for […]) was tested by agar diffusion assay.[44] A 100 μl of C. albicans 103 in 10^6 CFU/ml suspension was spread uniformly onto the yeast extract-peptone-dextrose agar plate with or without 64 μg/ml FLC. Then, 6-mm paper disks impregnated with Ost and FLC alone or in combination were placed onto the agar surface. There was 5 μl of DMSO in control disks. Inhibition zones were measured after incubation at 35°C for 48 h. Assays were performed in duplicate.

[4] = system: C. albicans ATCC 90028; assay: Checkerboard microdilution assay, quality control strain; assay type: cell-based, Candida albicans; settings: ATCC90028; for MIC80 in combination: FLC combined with Ost
Method: as §1, §2

OC(Cn1cncn1)(Cn1cncn1)c1ccc(F)cc1F [FLC, fluconazole, reference compound]
average survival day [1]: 8.7 days | MIC80 ([2]; isolate 32): 64 µg/mL | MIC80 ([2]; isolate 100): > 64 µg/mL | MIC80 ([2]; isolate 103): > 64 µg/mL | MIC80 ([2]; isolate 557): > 64 µg/mL | MIC80 ([2]; isolate 842): > 64 µg/mL | MIC80 ([2]; isolate 901): > 64 µg/mL | MIC80 ([2]; isolate 904): > 64 µg/mL | MIC80 ([2]; isolate 953): 64 µg/mL | MIC80 ([2]; isolate J5): > 64 µg/mL | MIC80 ([2]; isolate J28): > 64 µg/mL | MIC80 ([2]; isolate J35): 64 µg/mL | antifungal activity when tested alone [2]: weak antifungal activity | MIC80 in combination ([2]; isolate 32): 2 µg/mL | MIC80 in combination ([2]; isolate 100): 4 µg/mL | MIC80 in combination ([2]; isolate 103): 4 µg/mL | MIC80 in combination ([2]; isolate 557): 2 µg/mL | MIC80 in combination ([2]; isolate 842): 2 µg/mL | MIC80 in combination ([2]; isolate 901): 2 µg/mL | MIC80 in combination ([2]; isolate 904): 2 µg/mL | MIC80 in combination ([2]; isolate 953): 2 µg/mL | MIC80 in combination ([2]; isolate J5): 2 µg/mL | MIC80 in combination ([2]; isolate J28): 8 µg/mL | MIC80 in combination ([2]; isolate J35): 1 µg/mL | inhibition, disk on plain agar ([3]; FLC alone, 10 μg, 35°C, 48 h): only weak inhibition | MIC80 in combination [4]: 0.0625 µg/mL | MIC80 ([4]; Candida albicans, 35 °C, 24 h, read-out: MIC80 alone): 0.25 µg/mL

7-methoxy-8-[3-methylpent-2-enyl] coumarin [Ost]
antifungal activity when tested alone [2]: weak antifungal activity | MIC80 alone ([2]; isolate 32): 64 µg/mL | MIC80 in combination ([2]; isolate 32): 4 µg/mL | MIC80 alone ([2]; isolate 100): 32 µg/mL | MIC80 in combination ([2]; isolate 100): 4 µg/mL | MIC80 alone ([2]; isolate 103): 64 µg/mL | MIC80 in combination ([2]; isolate 103): 4 µg/mL | MIC80 alone ([2]; isolate 557): 64 µg/mL | MIC80 in combination ([2]; isolate 557): 2 µg/mL | MIC80 alone ([2]; isolate 842): 64 µg/mL | MIC80 in combination ([2]; isolate 842): 2 µg/mL | MIC80 alone ([2]; isolate 901): 16 µg/mL | MIC80 in combination ([2]; isolate 901): 4 µg/mL | MIC80 alone ([2]; isolate 904): >64 µg/mL | MIC80 in combination ([2]; isolate 904): 4 µg/mL | MIC80 alone ([2]; isolate 953): 32 µg/mL | MIC80 in combination ([2]; isolate 953): 4 µg/mL | MIC80 alone ([2]; isolate J5): 64 µg/mL | MIC80 in combination ([2]; isolate J5): 8 µg/mL | MIC80 alone ([2]; isolate J28): 64 µg/mL | MIC80 in combination ([2]; isolate J28): 8 µg/mL | MIC80 alone ([2]; isolate J35): 32 µg/mL | MIC80 in combination ([2]; isolate J35): 8 µg/mL | mean diameter of the inhibitory zone ([3]; 8 μg Ost disk on YEPD plate containing 64 μg/ml FLC): 8 mm | mean diameter of the inhibitory zone ([3]; 16 μg Ost disk on YEPD plate containing 64 μg/ml FLC): 12 mm | mean diameter of the inhibitory zone ([3]; 32 μg Ost disk on YEPD plate containing 64 μg/ml FLC): 16 mm | mean diameter of the inhibitory zone ([3]; 64 μg Ost disk on YEPD plate containing 64 μg/ml FLC): 21 mm | anti-fungal activity, disk on plain agar ([3]; 64 μg, 35°C, 48 h): weak anti-fungal activity | anti-fungal activity, disk on plain agar ([3]; smaller dosage (below 64 μg), 35°C, 48 h): no anti-fungal activity | MIC80 alone ([4]; 35 °C, 24 h): 8 µg/mL | MIC80 in combination [4]: 1 µg/mL
